{"source": "patent US20240374563A1", "about": "“ANTICHOLINERGIC COMPOUNDS FOR USE IN TREATING NEUROMUSCULAR DISORDERS” (UNIVERSITY OF MONTRÉAL, priority 2022, published 2024)", "key": {"[1]": {"test_system": "PSC muscarinic receptors (mAChRs)", "conditions": "SOD1 mice, 15 mg/kg for 30 days; SOL muscle", "source_text": "Mice were then sacrificed, and muscles dissected with their innervation and placed in a physiological recording chamber. We performed Ca^2+ imaging on the SOL muscle to evaluate PSCs synaptic detection of neurotransmission elicited by motor nerve stimulation (50 Hz-5 sec) or local applications of the mAChRs agonist muscarine for the treated and the placebo groups.\nPreparations of SOL muscles and their innervation were dissected and pinned in a Sylgard-coated experimental chamber filled with an oxygenated Ree's solution (in mM, all Sigma), as follows: 110 NaCl, 5 KCl, 1 MgCl2, 25 NaHCO3, 2 CaCl2, 11 glucose, 0.3 glutamic acid, 0.4 glutamine, 5 BES (N,N-Bis(2-hydroxyethyl)-2-aminoethanesulfonic acid sodium salt), 0.036 choline chloride, and 4.34×10^−7 cocarboxylase. Nerve-muscle preparations were incubated for 90 min (2×45 min) in a preoxygenated saline solution containing 10 μM fluo-4AM (Invitrogen) and 0.02% pluronic acid (Invitrogen). After the loading, nerve muscle preparations were constantly perfused with a warm (26-28° C.) oxygenated Ree's solution (95% O2, 5% CO2). Basel level of fluorescence was always set within the same range of arbitrary units, using the same software and hardware settings. Changes in fluorescence were measured over PSC soma and expressed as follows: % ΔF/F=(F-Frest)/Frest×100. Experiments were discarded when focus drift occurred. […]"}, "PSC purinergic receptors": {"test_system": "PSC purinergic receptors", "test": "Calcium imaging of PSCs: Ca2+ responses to local ATP application", "assay_type": "in vivo, SOD1^G37R mice"}, "SOD1^G37R mice [2]": {"test_system": "SOD1^G37R mice", "test": "NMJ innervation status and NMJ repair signs by immunohistochemistry", "assay_type": "in vivo, mouse", "description": "We characterized EDL innervation status, a vulnerable fast-twitch muscle in ALS [3, 25-27], by classifying NMJs into fully innervated, partially innervated and denervated NMJs (FIG. 2A).\nNeuromuscular innervation: Immunostaining was performed on EDL and SOL muscle previously described. Briefly, NMJs were labeled to visualise the axon terminal, Schwann cells and the post-synaptic receptors. The presynaptic element was labeled using an anti-synaptic vesicular protein 2 (SV2, 1:2000, Developmental Studies Hybridoma Bank) and an anti-neurofilament M, (NF-M, 1:1000, Rockland Immunochemicals Inc). PSCs and Schwann cells were labeled with anti-S100β antibody (1:4, Z0311, Dako) and post-synaptic receptors with Alexa594-conjugated-α-BTX (1.33 μg/ml, Molecular Probes, Fischer Scientific, Canada).\nObservations and image acquisition were obtained using a Zeiss LSM 880 confocal microscope, with a 63× oil immersion objective (N.A. 1.4) or an Olympus FV 1000, with either a 63× oil immersion objective or a 20× water immersion objective (respectively N.A. 0.95 and 0.90). No image manipulations were performed after acquisition, except for brightness and contrast adjustments for figure presentation."}, "SOD1^G37R mice [3]": {"test_system": "SOD1^G37R mice", "test": "Motor neuron counts in lumbar spinal cord sections (ChAT/NeuN)", "assay_type": "in vivo, mouse", "conditions": "P520, treatment from disease onset, p<0.0001", "source_text": "We prepared lumbar spinal cords sections as previously described[6] and labeled MNs with the cholinergic neuronal marker ChAT and the general neuronal nuclei marker NeuN to identify α-MNs. Neurons positive for both markers located in the ventral horn were counted as α-MNs.\nMotor neuron counts: Mouse were perfused transcardially and lumbar spinal cord were subsequently dissected, cryoprotected in a 30% sucrose solution and frozen using dry ice. Floating lumbar spinal cord cryosections were processed as previously described. Spinal cords cryosections were double stained against Choline Acetyl-Transferase (ChAT: 1:100; Goat; Millipore, Canada; AB144P) and the neuronal marker Neuronal Nuclei (NeuN; 1:300; Mouse IgG1; Millipore; MAB377). ChAT and NeuN positive cells were identified as α-MNs[4]. A minimin of twenty lumbar spinal cord sections per animal were analysed and double-positive cells from each ventral horns were quantified."}, "SOD1^G37R mice [4]": {"test_system": "SOD1^G37R mice", "test": "EDL muscle weight", "assay_type": "in vivo, mouse"}, "SOD1^G37R mice [5]": {"test_system": "SOD1^G37R mice", "test": "Body weight loss", "assay_type": "in vivo, mouse", "conditions": "at P520; treatment from disease onset; N=21", "source_text": "To this end, we monitored the changes in the body weight of the animals, a metric that is directly related to the progression of the disease and survival whereby animals present an important gradual body weight loss after symptoms onset.\nThe pre-clinial trial design was made according to guidelines for preclinical animal research in ALS/MND [35]. Male mice from the SOD1^G37R background and their WT littermates were included in the preclinical study. Mice were randomly assigned to the experimental or the placebo group. Treatment, behavior monitoring, experiments and results analysis were done blindly. Standard ALS behavioral measurements were performed biweekly to measure disease progression in the various study groups. This includes rotarod test. grip strength measurements, weight measurements and tail suspension test to assess hindlimb extension reflex."}, "SOD1^G37R mice [6]": {"test_system": "SOD1^G37R mice", "test": "Gait analysis (footprint test)", "assay_type": "in vivo, mouse", "conditions": "P520; treatment from disease onset; N=8", "description": "Finally, we aimed to better characterize the walking pattern of the mice following treatment. We measured the gait by performing a footprint analysis using inked paws.\nGait was assessed using the footprint test. Paws were inked with a nontoxic paint (fore-paws in blue and hind-paws in red), mice were placed on a restricted pathway on a white paper sheet (30 cm long, 6 cm wide) and free to walk along the walkway. Five footsteps from each run were measured for the following parameters (cm): (1) stride length ([…]) and (2) Step width (distance between left and right paws). The mean value of each set of outcomes was calculated for statistical analysis."}, "[7]": {"test": "Darifenacin level in blood", "assay_type": "in vivo", "conditions": "SOD1 mice after oral treatment; levels consistent with pre-clinical data; data not shown", "description": "We opted for the dosage at 10 mg/kg since the primary goal is to restore PSCs activity by dampening their muscarinic activity close to WT levels. […] These were both essential steps to pursue the study."}, "[8]": {"conditions": "EDL, pre-onset treatment P400 until P480"}, "[9]": {"conditions": "EDL, treatment from disease onset (P450), 10 mg/kg orally, to P520"}, "[10]": {"conditions": "EDL, treatment from disease onset, 10 mg/kg orally"}}, "data": [{"molecule": "NC(=O)C(c1ccccc1)(c1ccccc1)[C@@H]1CCN(CCc2ccc3c(c2)CCO3)C1", "note": "[darifenacin]", "values": [{"measurement": "PSCs muscarinic activation", "setting": "[1]", "value": "greatly abolished"}, {"measurement": "PSC Ca2+ response to ATP, Darifenacin vs DMSO vs non-treated wild type", "setting": "PSC purinergic receptors; SOD1G37R mice, 10 mg/kg orally for 5 days", "value": "no difference"}, {"measurement": "effect on purinergic signaling of PSCs (Ca2+ responses to local ATP)", "setting": "PSC purinergic receptors; SOD1 mice, 10 or 15 mg/kg for 30 days", "value": "no effect"}, {"measurement": "animals in which glial process extensions were seen", "setting": "SOD1^G37R mice [2]; [8]", "value": "5 out of 6"}, {"measurement": "percentage of denervated NMJs", "setting": "SOD1^G37R mice [2]; [8]", "value": "15.7±5.9", "unit": "%"}, {"measurement": "percentage of partially innervated NMJs", "setting": "SOD1^G37R mice [2]; [8]", "value": "33.9±5.1", "unit": "%"}, {"measurement": "percentage of fully innervated NMJs", "setting": "SOD1^G37R mice [2]; EDL, pre-onset treatment P400 until P480, N=6, n=145", "value": "50.4±9.2", "unit": "%"}, {"measurement": "percentage of denervated NMJs", "setting": "SOD1^G37R mice [2]; EDL, treatment from disease onset (P450), 10 mg/kg orally 5 days a week, to P520, N=7, n=293", "value": "5.6±1.8", "unit": "%"}, {"measurement": "percentage of fully innervated NMJs", "setting": "SOD1^G37R mice [2]; [9]", "value": "70.1±4.2", "unit": "%"}, {"measurement": "percentage of partially innervated NMJs", "setting": "SOD1^G37R mice [2]; [9]", "value": "24.2±4.0", "unit": "%"}, {"measurement": "percentage of NMJs presenting nerve sprouting", "setting": "SOD1^G37R mice [2]; [10]", "value": "21.5±4.3", "unit": "%"}, {"measurement": "percentage of NMJs with glial processes alone", "setting": "SOD1^G37R mice [2]; [10]", "value": "2.2±1.8", "unit": "%"}, {"measurement": "percentage of NMJs with polyinnervation", "setting": "SOD1^G37R mice [2]; [10]", "value": "6.4±2.8"}, {"measurement": "NMJ repair signs (nerve sprouting, polyinnervation, glial processes) vs placebo", "setting": "SOD1^G37R mice [2]; SOL and EDL, pre-onset treatment P400 until P480", "value": "no evidence of significant difference"}, {"measurement": "percentage of partially innervated NMJs", "setting": "SOD1^G37R mice [2]; SOL, pre-onset treatment P400 until P480", "value": "34.9±8.6", "unit": "%"}, {"measurement": "percentage of fully innervated NMJs", "setting": "SOD1^G37R mice [2]; SOL, pre-onset treatment P400 until P480, N=4, n=118", "value": "60.5±8.2", "unit": "%"}, {"measurement": "α-MN count per ventral horn vs placebo", "setting": "SOD1^G37R mice [3]", "value": "significantly higher"}, {"measurement": "EDL muscle weight", "setting": "SOD1^G37R mice [4]; pre-onset treatment P400 until P520, N=4, n=7", "value": "9.1 ± 0.55", "unit": "mg"}, {"measurement": "EDL muscle weight", "setting": "SOD1^G37R mice [4]; treatment from disease onset, N=8, n=16", "value": "11.79 ± 0.34", "unit": "mg"}, {"measurement": "body weight loss", "setting": "SOD1^G37R mice [5]", "value": "20.0±1.9", "unit": "%"}, {"measurement": "step width", "setting": "SOD1^G37R mice [6]", "value": "2.62±0.16", "unit": "cm"}, {"measurement": "stride length", "setting": "SOD1^G37R mice [6]", "value": "4.13±0.36", "unit": "cm"}, {"measurement": "darifenacin in the blood", "setting": "[7]", "value": "detected in the blood"}]}]}
